Toxic doses and inconclusive results are not listed.
Tested on: P388 leukemia ip, CD2F1 mice, survival T/C
Assay: NCI In Vivo Anticancer Drug Screen. Data for tumor model P388 Leukemia (intraperitoneal) in CD2F1 (CDF1) mice
Settings: endpoint: median survival time, higher = longer survival
Procedure, shortened: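 Mice carrying the transplanted tumor received test compound or vehicle. Survival was recorded in each group, and the value is the treated-group measurement divided by that of the vehicle-treated control group.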

[1] = dose: 50.0 mg/kg/injection, schedule: Q01DX009 (ip), vehicle: Klucel (hydroxypropylcellulose) (HPC)
[2] = dose: 100.0 mg/kg/injection, schedule: Q01DX009 (ip), vehicle: Klucel (hydroxypropylcellulose) (HPC)
[3] = dose: 60.0 mg/kg/injection, schedule: Q01DX005 (ip), vehicle: saline with Tween-80
[4] = dose: 120.0 mg/kg/injection, schedule: Q01DX005 (ip), vehicle: saline with Tween-80

**Q.** Which results are given for O=C(NC1C=Nc2ccc(Cl)cc2NC1=O)c1ccc(Cl)cc1 (stereo unspecified)?
**A.** T/C (dose: 60.0 mg/kg/injection, schedule: Q01DX005 (ip), vehicle: Klucel (hydroxypropylcellulose) (HPC)): 91 % of control; T/C (dose: 120.0 mg/kg/injection, schedule: Q01DX005 (ip), vehicle: Klucel (hydroxypropylcellulose) (HPC)): 91 % of control; T/C (dose: 240.0 mg/kg/injection, schedule: Q01DX005 (ip), vehicle: Klucel (hydroxypropylcellulose) (HPC)): 93 % of control

**Q.** For CC(=O)Nc1ccc(OCCOC(=O)Nc2ccc(C)cc2[N+](=O)[O-])cc1, which T/C [1] is on record?
**A.** Its T/C is 88 % of control.

**Q.** Which results are given for O=C(O)c1ccnc2c1ccc1ccccc12?
**A.** T/C (dose: 100.0 mg/kg/injection, schedule: Q04DX002 (ip), vehicle: Klucel (hydroxypropylcellulose) (HPC)): 103 % of control; T/C (dose: 200.0 mg/kg/injection, schedule: Q04DX002 (ip), vehicle: Klucel (hydroxypropylcellulose) (HPC)): 94 % of control

**Q.** With c1cnc2c(NC3CCCCC3)ncnc2n1 as the compound, how does the T/C [1] read?
**A.** Its T/C is 100 % of control.

**Q.** What about the T/C [2] of the same compound?
**A.** Its T/C is 98 % of control.

**Q.** What about the T/C (dose: 200.0 mg/kg/injection, schedule: Q01DX009 (ip), vehicle: Klucel (hydroxypropylcellulose) (HPC)) of the same compound?
**A.** Its T/C is 97 % of control.

**Q.** CN(C)CCCN1c2ccccc2Sc2ccc3ccccc3c21 was tested. Which T/C (dose: 50.0 mg/kg/injection, schedule: Q01DX005 (ip), vehicle: saline with Tween-80) did it give?
**A.** The T/C was 104 % of control.

**Q.** And the T/C (dose: 100.0 mg/kg/injection, schedule: Q01DX005 (ip), vehicle: saline with Tween-80)?
**A.** The T/C was 102 % of control.

**Q.** And the T/C (dose: 200.0 mg/kg/injection, schedule: Q01DX005 (ip), vehicle: saline with Tween-80)?
**A.** Its T/C is 104 % of control.

**Q.** Which T/C (dose: 7.0 mg/kg/injection, schedule: Q01DX005 (ip), vehicle: Klucel (hydroxypropylcellulose) (HPC)) does the source give for CC1=C(CO)C(=O)OC(C(C)C2CCC3C4CC5OC56C(O)C(N5CCCCC5)CC(=O)C6(C)C4CCC23C)C1 (stereo unspecified) here?
**A.** Its T/C is 101 % of control.

**Q.** And the T/C (dose: 14.0 mg/kg/injection, schedule: Q01DX005 (ip), vehicle: Klucel (hydroxypropylcellulose) (HPC))?
**A.** Its T/C is 94 % of control.

**Q.** And the T/C (dose: 28.0 mg/kg/injection, schedule: Q01DX005 (ip), vehicle: Klucel (hydroxypropylcellulose) (HPC))?
**A.** Its T/C is 96 % of control.

**Q.** And the T/C (dose: 56.0 mg/kg/injection, schedule: Q01DX005 (ip), vehicle: Klucel (hydroxypropylcellulose) (HPC))?
**A.** The T/C was 101 % of control.

**Q.** What about the T/C (dose: 112.0 mg/kg/injection, schedule: Q01DX005 (ip), vehicle: Klucel (hydroxypropylcellulose) (HPC)) of the same compound?
**A.** Its T/C is 97 % of control.

**Q.** What does the source list for COc1cccc2c1C(=O)c1c(O)c3c(c(O)c1C2=O)C[C@@](O)(C(=O)CN1CCOCC1)C[C@@H]3OC1CC(N)C(O)C(C)O1 (stereo partly specified)?
**A.** T/C (dose: 1.3 mg/kg/injection, schedule: Q01DX001 (ip), vehicle: water): 116 % of control; T/C (dose: 1.56 mg/kg/injection, schedule: Q01DX009 (ip), vehicle: water): 103 % of control; T/C (dose: 1.8 mg/kg/injection, schedule: Q01DX001 (ip), vehicle: water): 114 % of control; T/C (dose: 2.4 mg/kg/injection, schedule: Q01DX001 (ip), vehicle: water): 116 % of control; T/C (dose: 3.13 mg/kg/injection, schedule: Q01DX009 (ip), vehicle: water): 115 % of control; T/C (dose: 3.2 mg/kg/injection, schedule: Q01DX001 (ip), vehicle: water): 119 % of control; T/C (dose: 4.2 mg/kg/injection, schedule: Q01DX001 (ip), vehicle: water): 119 % of control; T/C (dose: 5.56 mg/kg/injection, schedule: Q01DX009 (ip), vehicle: water): 156 % of control; T/C (dose: 8.33 mg/kg/injection, schedule: Q01DX009 (ip), vehicle: water): 162 % of control; T/C (dose: 10.0 mg/kg/injection, schedule: Q01DX001 (ip), vehicle: water): 119 % of control; T/C (dose: 18.8 mg/kg/injection, schedule: Q01DX009 (ip), vehicle: water): 153 % of control; T/C (dose: 50.0 mg/kg/injection, schedule: Q01DX001 (ip), vehicle: water): 162 % of control; T/C (dose: 100.0 mg/kg/injection, schedule: Q01DX001 (ip), vehicle: water): 174 % of control

**Q.** Which T/C (dose: 12.5 mg/kg/injection, schedule: Q01DX009 (ip), vehicle: Klucel (hydroxypropylcellulose) (HPC)) does the source give for CC1=Nc2ccccc2NC(=O)C1 here?
**A.** Its T/C is 99 % of control.

**Q.** And the T/C (dose: 25.0 mg/kg/injection, schedule: Q01DX009 (ip), vehicle: Klucel (hydroxypropylcellulose) (HPC))?
**A.** Its T/C is 108 % of control.

**Q.** And the T/C [1]?
**A.** Its T/C is 100 % of control.

**Q.** And the T/C [2]?
**A.** The T/C was 108 % of control.

**Q.** For COc1cc(C(c2cc3c(cc2OC(C)=O)OCO3)C(C(C)=O)C(C)=O)cc(OC)c1OC (stereo unspecified), which T/C [3] is on record?
**A.** The T/C was 106 % of control.

**Q.** What about the T/C [4] of the same compound?
**A.** The T/C was 98 % of control.

**Q.** What about the T/C (dose: 240.0 mg/kg/injection, schedule: Q01DX005 (ip), vehicle: saline with Tween-80) of the same compound?
**A.** Its T/C is 121 % of control.

**Q.** CCOC(=O)C12CCC(C(=O)OCC)(CC13SCCS3)C1(C2)SCCS1 was tested. Which T/C (dose: 100.0 mg/kg/injection, schedule: Q01DX001 (ip), vehicle: saline with Tween-80) did it give?
**A.** Its T/C is 97 % of control.

**Q.** And the T/C (dose: 200.0 mg/kg/injection, schedule: Q01DX001 (ip), vehicle: saline with Tween-80)?
**A.** Its T/C is 99 % of control.

**Q.** What about the T/C (dose: 400.0 mg/kg/injection, schedule: Q01DX001 (ip), vehicle: saline with Tween-80) of the same compound?
**A.** The T/C was 97 % of control.

**Q.** With C=CC(N)[Si](CC)(CC)CC (stereo unspecified) as the compound, how does the T/C [3] read?
**A.** Its T/C is 106 % of control.

**Q.** What about the T/C [4] of the same compound?
**A.** Its T/C is 101 % of control.

**Q.** What does the source list for NCCCn1ccc2c3ccccc3nc-2c1?
**A.** T/C (dose: 12.5 mg/kg/injection, schedule: Q01DX009 (ip), vehicle: water): 105 % of control; T/C (dose: 25.0 mg/kg/injection, schedule: Q01DX009 (ip), vehicle: water): 90 % of control; T/C (dose: 50.0 mg/kg/injection, schedule: Q01DX009 (ip), vehicle: water): 104 % of control; T/C (dose: 100.0 mg/kg/injection, schedule: Q01DX009 (ip), vehicle: water): 105 % of control

Source: PubChem BioAssay AID330 (DTP/NCI, 2004)
